{
  "source": "patent US4684629A",
  "about": "“3'-deamino-3'-hydroxy-4'-deoxy-4'-amino doxorubicin and related daunorubicin” (priority 1985, dated 1987)",
  "key": {"HeLa cells": {"test_system": "HeLa cells", "assay": "colony inhibition test against HeLa cells (treatment for 24 hrs)", "assay_type": "cell-based", "conditions": "Homo sapiens"}, "P388 leukemia": {"test_system": "P388 leukemia", "assay": "antitumor activity against P388 ascitic leukemia in CDF-1 mice, treatment ip on day 1", "assay_type": "in vivo", "conditions": "for T/C % (median survival time: % over untreated controls) / Toxic deaths: ip on day 1; for Toxic deaths: autoptic findings on dead mice; for antitumor activity compared with the parent drugs: P 388 ascitic leukemia, CDF-1 mice, in words", "experimental": "The primary screening \"in vivo\" was carried out in CDF-1 mice bearing P 388 ascitic leukemia (10^6 cells/mouse).\nAntitumor activity against P388 leukemia, treatment ip on day 1\n^a Median survival time: % over untreated controls\n^b Evaluated on the basis of autoptic findings on dead mice."}, "[1]": {"test_system": "advanced mammary carcinoma", "assay": "activity and toxicity against advanced mammary carcinoma in C3H/He mice, iv once a week for four weeks", "assay_type": "in vivo", "conditions": "for Toxic deaths: autoptic evaluation; for Tumor growth: evaluated once week after last treatment; for activity at the optimal dose: 6 mg/kg of Doxorubicin, 5.3 mg/kg of IB, in words", "experimental": "(§1) The compound IB has been tested in comparison with Doxorubicin against advanced mammary carcinoma spontaneously arising in C3H/He mice. The compounds were administered iv once a week for four weeks.\nActivity, toxicity and cardiotoxicity of IB against advanced mammary\n(§2) ^1 Experiment was performed in C3H/He mice inoculated s.c. with 20\n(§3) × 10^6 mammary carcinoma cells.\n(§4) ^2 Treatment iv started when tumor was palpable (once week for four\n^3 Evaluated once week after last treatment.\n^5 Evaluated on the basis of autoptic"}, "[2]": {"test_system": "miocardial tissue (atrium, ventricle)", "assay": "cardiotoxicity in C3H/He mice bearing mammary carcinoma, semithin sections of miocardial tissue (light microscopy)", "assay_type": "in vivo", "conditions": "for animals with cardiac lesions (atrial and ventricular level) / severity of the cardiac lesions: mouse, in vivo", "experimental": "as §1, §2, §3, §4\n^6 Evaluated on semithin section of miocardial tissue (by light"}, "[3]": {"conditions": "6 mg/kg iv once a week for four weeks"}, "[4]": {"conditions": "7.5 mg/kg iv once a week for four weeks"}, "[5]": {"conditions": "2.7 mg/kg iv once a week for four weeks"}, "[6]": {"conditions": "3.8 mg/kg iv once a week for four weeks"}, "[7]": {"conditions": "5.3 mg/kg iv once a week for four weeks"}},
  "note": "Like-named read-outs stand apart in the source and are kept apart here.",
  "data": [
    {"smiles": "COc1cccc2c1C(=O)c1c(O)c3c(c(O)c1C2=O)C[C@@](O)(C(C)=O)C[C@@H]3O[C@H]1C[C@H](N)[C@H](O)[C@H](C)O1", "note": "[Daunorubicin]", "values": [
      {"measurement": "IC50", "setting": "HeLa cells; HeLa, 24 h, read-out: ID50", "result": 9, "unit": "ng/mL"},
      {"measurement": "T/C % (median survival time: % over untreated controls)", "setting": "P388 leukemia; dose 2.9 (ng/kg [sic])", "result": 170, "unit": "%"},
      {"measurement": "Toxic deaths", "setting": "P388 leukemia; dose 2.9 (ng/kg [sic])", "result": "0/10"},
      {"measurement": "T/C % (median survival time: % over untreated controls)", "setting": "P388 leukemia; dose 4.4 (ng/kg [sic])", "result": 170, "unit": "%"},
      {"measurement": "Toxic deaths", "setting": "P388 leukemia; dose 4.4 (ng/kg [sic])", "result": "0/10"},
      {"measurement": "T/C % (median survival time: % over untreated controls)", "setting": "P388 leukemia; dose 6.6 (ng/kg [sic])", "result": 170, "unit": "%"},
      {"measurement": "Toxic deaths", "setting": "P388 leukemia; dose 6.6 (ng/kg [sic])", "result": "3/10"}
    ]},
    {"smiles": "COc1cccc2c1C(=O)c1c(O)c3c(c(O)c1C2=O)C[C@@](O)(C(=O)CO)C[C@@H]3O[C@H]1C[C@H](N)[C@H](O)[C@H](C)O1", "note": "[Doxorubicin]", "values": [
      {"measurement": "T/C % (median survival time: % over untreated controls)", "setting": "P388 leukemia; dose 10.0 (ng/kg [sic])", "result": 225, "unit": "%"},
      {"measurement": "Toxic deaths", "setting": "P388 leukemia; dose 10.0 (ng/kg [sic])", "result": "0/10"},
      {"measurement": "T/C %", "setting": "[1]; [3]", "result": 138, "unit": "%"},
      {"measurement": "Toxic deaths", "setting": "[1]; [3]", "result": "0/5"},
      {"measurement": "Tumor growth", "setting": "[1]; [3]", "result": 65},
      {"measurement": "activity at the optimal dose", "setting": "[1]", "result": "the same for both compounds"},
      {"measurement": "T/C %", "setting": "[1]; [4]", "result": 125, "unit": "%"},
      {"measurement": "Toxic deaths", "setting": "[1]; [4]", "result": "5/5"},
      {"measurement": "Tumor growth", "setting": "[1]; [4]", "result": 84},
      {"measurement": "Cardiotoxicity, Atrium, affected mice (%)", "setting": "[2]; [3]", "result": 100, "unit": "%"},
      {"measurement": "Cardiotoxicity, Atrium, grade", "setting": "[2]; [3]", "result": 1.6},
      {"measurement": "Cardiotoxicity, Ventricle, affected mice (%)", "setting": "[2]; [3]", "result": 100, "unit": "%"},
      {"measurement": "Cardiotoxicity, Ventricle, grade", "setting": "[2]; [3]", "result": 1.2},
      {"measurement": "Cardiotoxicity, Atrium, affected mice (%)", "setting": "[2]; [4]", "result": 100, "unit": "%"},
      {"measurement": "Cardiotoxicity, Atrium, grade", "setting": "[2]; [4]", "result": 3.2},
      {"measurement": "Cardiotoxicity, Ventricle, affected mice (%)", "setting": "[2]; [4]", "result": 100, "unit": "%"},
      {"measurement": "Cardiotoxicity, Ventricle, grade", "setting": "[2]; [4]", "result": 3.6},
      {"measurement": "animals with cardiac lesions (atrial and ventricular level)", "setting": "[2]", "result": "all the animals"},
      {"measurement": "severity of the cardiac lesions", "setting": "[2]", "result": "high"}
    ]},
    {"smiles": "COc1cccc2c1C(=O)c1c(O)c3c(c(O)c1C2=O)CC(O)(C(C)=O)CC3OC1CC(O)C(N)C(C)O1", "note": "(centres unmarked) [IA, 3'-deamino-3'-hydroxy-4'-deoxy-4'-aminodaunorubicin]", "values": [
      {"measurement": "IC50", "setting": "HeLa cells; HeLa cells, treatment for 24 hrs, read-out: ID50 (the source's name)", "result": 7, "unit": "ng/mL"},
      {"measurement": "antitumor activity compared with the parent drugs", "setting": "P388 leukemia", "result": "more active than the parent drugs"},
      {"measurement": "T/C % (median survival time: % over untreated controls)", "setting": "P388 leukemia; dose 10.0 (ng/kg [sic])", "result": 165, "unit": "%"},
      {"measurement": "Toxic deaths", "setting": "P388 leukemia; dose 10.0 (ng/kg [sic])", "result": "0/10"},
      {"measurement": "T/C % (median survival time: % over untreated controls)", "setting": "P388 leukemia; dose 15.0 (ng/kg [sic])", "result": 180, "unit": "%"},
      {"measurement": "Toxic deaths", "setting": "P388 leukemia; dose 15.0 (ng/kg [sic])", "result": "0/10"},
      {"measurement": "T/C % (median survival time: % over untreated controls)", "setting": "P388 leukemia; dose 22.5 (ng/kg [sic])", "result": 200, "unit": "%"},
      {"measurement": "Toxic deaths", "setting": "P388 leukemia; dose 22.5 (ng/kg [sic])", "result": "0/10"}
    ]},
    {"smiles": "COc1cccc2c1C(=O)c1c(O)c3c(c(O)c1C2=O)CC(O)(C(=O)CO)CC3OC1CC(O)C(N)C(C)O1", "note": "(centres unmarked) [IB, 3'-deamino-3'-hydroxy-4'-deoxy-4'-aminodoxorubicin]", "values": [
      {"measurement": "antitumor activity compared with the parent drugs", "setting": "P388 leukemia", "result": "more active than the parent drugs"},
      {"measurement": "T/C % (median survival time: % over untreated controls)", "setting": "P388 leukemia; dose 4.4 (ng/kg [sic])", "result": 220, "unit": "%"},
      {"measurement": "Toxic deaths", "setting": "P388 leukemia; dose 4.4 (ng/kg [sic])", "result": "0/10"},
      {"measurement": "T/C % (median survival time: % over untreated controls)", "setting": "P388 leukemia; dose 6.6 (ng/kg [sic])", "result": 230, "unit": "%"},
      {"measurement": "Toxic deaths", "setting": "P388 leukemia; dose 6.6 (ng/kg [sic])", "result": "0/10"},
      {"measurement": "T/C % (median survival time: % over untreated controls)", "setting": "P388 leukemia; dose 10.0 (ng/kg [sic])", "result": 310, "unit": "%"},
      {"measurement": "Toxic deaths", "setting": "P388 leukemia; dose 10.0 (ng/kg [sic])", "result": "0/10"},
      {"measurement": "T/C % (median survival time: % over untreated controls)", "setting": "P388 leukemia; dose 15.0 (ng/kg [sic])", "result": 215, "unit": "%"},
      {"measurement": "Toxic deaths", "setting": "P388 leukemia; dose 15.0 (ng/kg [sic])", "result": "3/10"},
      {"measurement": "T/C %", "setting": "[1]; [5]", "result": 98, "unit": "%"},
      {"measurement": "Toxic deaths", "setting": "[1]; [5]", "result": "0/5"},
      {"measurement": "Tumor growth", "setting": "[1]; [5]", "result": 32},
      {"measurement": "T/C %", "setting": "[1]; [6]", "result": 129, "unit": "%"},
      {"measurement": "Toxic deaths", "setting": "[1]; [6]", "result": "0/5"},
      {"measurement": "Tumor growth", "setting": "[1]; [6]", "result": 34},
      {"measurement": "T/C %", "setting": "[1]; [7]", "result": 148, "unit": "%"},
      {"measurement": "Toxic deaths", "setting": "[1]; [7]", "result": "1/5"},
      {"measurement": "Tumor growth", "setting": "[1]; [7]", "result": 59},
      {"measurement": "activity at the optimal dose", "setting": "[1]", "result": "the same for both compounds"},
      {"measurement": "Cardiotoxicity, Atrium, affected mice (%)", "setting": "[2]; [5]", "result": 25, "unit": "%"},
      {"measurement": "Cardiotoxicity, Atrium, grade", "setting": "[2]; [5]", "result": 0.1},
      {"measurement": "Cardiotoxicity, Ventricle, affected mice (%)", "setting": "[2]; [5]", "result": 0, "unit": "%"},
      {"measurement": "Cardiotoxicity, Ventricle, grade", "setting": "[2]; [5]", "result": 0},
      {"measurement": "Cardiotoxicity, Atrium, affected mice (%)", "setting": "[2]; [6]", "result": 20, "unit": "%"},
      {"measurement": "Cardiotoxicity, Atrium, grade", "setting": "[2]; [6]", "result": 0.1},
      {"measurement": "Cardiotoxicity, Ventricle, affected mice (%)", "setting": "[2]; [6]", "result": 60, "unit": "%"},
      {"measurement": "Cardiotoxicity, Ventricle, grade", "setting": "[2]; [6]", "result": 0.3},
      {"measurement": "Cardiotoxicity, Atrium, affected mice (%)", "setting": "[2]; [7]", "result": 40, "unit": "%"},
      {"measurement": "Cardiotoxicity, Atrium, grade", "setting": "[2]; [7]", "result": 0.2},
      {"measurement": "Cardiotoxicity, Ventricle, affected mice (%)", "setting": "[2]; [7]", "result": 80, "unit": "%"},
      {"measurement": "Cardiotoxicity, Ventricle, grade", "setting": "[2]; [7]", "result": 0.4},
      {"measurement": "cardiotoxicity in comparison with Doxorubicin", "setting": "[2]; in words", "result": "drastically reduced in comparison with Doxorubicin"},
      {"measurement": "animals with cardiac lesions (atrial and ventricular level)", "setting": "[2]", "result": "lower percent of affected mice"},
      {"measurement": "severity of the cardiac lesions", "setting": "[2]", "result": "lower severity"}
    ]}
  ]
}
